Results reported in US9555022B2, “Substituted triazolopyridines” (Bayer Intellectual Property GmbH, priority 2010, dated 2017).

Biological target: human full length recombinant Mps-1 kinase (Homo sapiens (Human), UniProt P33981)
Test: Mps-1 Kinase Assay (TR-FRET)
Type: biochemical
Settings: 10 μM ATP, 1 μM biotinylated peptide substrate, 60 min at 22° C., read-out: Mps-1 Inhibition, IC50 in M
Experimental: The human kinase Mps-1 phosphorylates a biotinylated substrate peptide. Detection of the phosphorylated product is achieved by time-resolved fluorescence resonance energy transfer (TR-FRET) from Europium-labelled anti-phospho-Serine/Threonine antibody as donor to streptavidin labelled with cross-linked allophycocyanin (SA-XLent) as acceptor. Compounds are tested for their inhibition of the kinase activity.
N-terminally GST-tagged human full length recombinant Mps-1 kinase (purchased from Invitrogen, Karslruhe, Germany, cat. no PV4071) was used. As substrate for the kinase reaction a biotinylated peptide of the amino-acid sequence […] (C-terminus in amide form, purchased from Biosynthan GmbH, Berlin) was used.
The concentration of Mps-1 in the assay was adjusted to the activity of the enzyme lot and was chosen appropriate to have the assay in the linear range, typical enzyme concentrations were in the range of about 1 nM (final conc. in the 5 μl assay volume).
The resulting mixture was incubated 1 h at 22° C. to allow the binding of the phosphorylated peptide to the anti-phospho(Ser/Thr)-Europium-antibody. Subsequently the amount of phosphorylated substrate was evaluated by measurement of the resonance energy transfer from the Europium-labelled anti-phospho(Ser/Thr) antibody to the Streptavidin-XLent.

human full length recombinant Mps-1 kinase, sequence (P33981 whole entry): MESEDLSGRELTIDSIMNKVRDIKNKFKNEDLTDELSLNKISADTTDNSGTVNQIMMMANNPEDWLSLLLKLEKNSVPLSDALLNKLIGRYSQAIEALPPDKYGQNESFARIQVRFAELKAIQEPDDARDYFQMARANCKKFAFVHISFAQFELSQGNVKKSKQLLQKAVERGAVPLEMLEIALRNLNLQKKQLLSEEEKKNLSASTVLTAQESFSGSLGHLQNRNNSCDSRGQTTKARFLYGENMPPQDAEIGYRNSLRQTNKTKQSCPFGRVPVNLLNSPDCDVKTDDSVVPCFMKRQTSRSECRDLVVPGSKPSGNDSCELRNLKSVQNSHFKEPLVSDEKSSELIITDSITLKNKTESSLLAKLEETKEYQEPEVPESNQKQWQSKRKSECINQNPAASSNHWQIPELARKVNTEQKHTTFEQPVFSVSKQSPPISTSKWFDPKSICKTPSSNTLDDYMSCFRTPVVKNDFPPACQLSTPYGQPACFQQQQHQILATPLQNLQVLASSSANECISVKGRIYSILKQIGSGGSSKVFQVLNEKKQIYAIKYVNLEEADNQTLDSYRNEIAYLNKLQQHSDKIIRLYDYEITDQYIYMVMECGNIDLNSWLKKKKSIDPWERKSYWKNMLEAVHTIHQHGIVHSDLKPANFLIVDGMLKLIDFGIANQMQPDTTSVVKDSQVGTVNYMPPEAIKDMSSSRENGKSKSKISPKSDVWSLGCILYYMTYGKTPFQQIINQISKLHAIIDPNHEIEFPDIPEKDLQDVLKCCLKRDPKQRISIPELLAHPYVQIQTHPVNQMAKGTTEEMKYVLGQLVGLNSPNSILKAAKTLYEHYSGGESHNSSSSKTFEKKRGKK

IC50, ≤ 1 nM:
O=C(NCC1CC1)c1ccc(-c2ccc3nc(Nc4ccc(C(=O)N5CCOCC5)cc4OCC(F)(F)F)nn3c2)cc1 [Example 03.06, N-(cyclopropylmethyl)-4-(2-{[4-(morpholin-4-ylcarbonyl)-2-(2,2,2-trifluoroethoxy)phenyl]amino}[,2]-triazolo[1,5-a]pyridin-6-yl)benzamide]
COc1cc(C(=O)N2CC3(COC3)C2)ccc1Nc1nc2ccc(-c3ccc(C(=O)NCC4CC4)cc3)cn2n1 [Example 03.07, N-(cyclopropylmethyl)-4-(2-{[2-methoxy-4-(2-oxa-6-azaspiro[3.3]hept-6-ylcarbonyl)phenyl]amino}[,2]triazolo[1,5-a]pyridin-6-yl)benzamide]
COc1cc(C(=O)N2CCOCC2)ccc1Nc1nc2ccc(-c3ccc(C(=O)NCc4ccc(F)cc4)cc3)cn2n1 [Example 04.01, N-(4-Fluorbenzyl)-4-(2-{[2-methoxy-4-(morpholin-4-ylcarbonyl)phenyl]amino}[,2]-triazolo[1,5-a]pyridin-6-yl)benzamid]
CCOc1cc(C(=O)N2CCOCC2)ccc1Nc1nc2ccc(-c3ccc(C(=O)NCc4ccc(F)cc4)cc3)cn2n1 [Example 04.02, 4-(2-{[2-Ethoxy-4-(morpholin-4-ylcarbonyl)phenyl]amino}[,2]-triazolo[1,5-a]pyridin-6-yl)-N-(4-fluorbenzyl)benzamid]
COc1cc(N2CCOC2=O)ccc1Nc1nc2ccc(-c3ccc(C(=O)NCc4ccc(F)cc4)cc3)cn2n1 [Example 04.03, N-(4-fluorobenzyl)-4-(2-{[2-methoxy-4-(2-oxo-1,3-oxazolidin-3-yl)phenyl]amino}[,2]-triazolo[1,5-a]pyridin-6-yl)benzamide]
CCOc1cc(N2CCOC2=O)ccc1Nc1nc2ccc(-c3ccc(C(=O)NCc4ccc(F)cc4)cc3)cn2n1 [Example 04.04, 4-(2-{[2-ethoxy-4-(2-oxo-1,3-oxazolidin-3-yl)phenyl]amino}[,2]triazolo[1,5-a]pyridin-6-yl)-N-(4-fluorobenzyl)benzamide]
COc1cc(C2=NCCO2)ccc1Nc1nc2ccc(-c3ccc(C(=O)NCc4ccc(F)cc4)cc3)cn2n1 [Example 04.05, 4-(2-{[4-(4,5-dihydro-1,3-oxazol-2-yl)-2-methoxyphenyl]amino}[,2]-triazolo[1,5-a]pyridin-6-yl)-N-(4-fluorobenzyl)benzamide]
COc1cc(C(=O)N2C[C@@H]3C[C@H]2CO3)ccc1Nc1nc2ccc(-c3ccc(C(=O)NCc4ccc(F)cc4)cc3)cn2n1 [Example 04.06, N-(4-fluorobenzyl)-4-[2-({2-methoxy-4-[(1S,4S)-2-oxa-5-azabicyclo[2.2.1]hept-5-ylcarbonyl]phenyl}amino)[,2]triazolo[1,5-a]pyridin-6-yl]benzamide]
COc1cc(C(=O)N2CC3(COC3)C2)ccc1Nc1nc2ccc(-c3ccc(C(=O)NCc4ccc(F)cc4)cc3)cn2n1 [Example 04.07, N-(4-fluorobenzyl)-4-(2-{[2-methoxy-4-(2-oxa-6-azaspiro[3.3]hept-6-ylcarbonyl)phenyl]amino}[,2]triazolo[1,5-a]pyridin-6-yl)benzamide]
COc1cc(C(=O)N2CC(O)C2)ccc1Nc1nc2ccc(-c3ccc(C(=O)NCc4ccc(F)cc4)cc3)cn2n1 [Example 04.08, N-(4-fluorobenzyl)-4-[2-({4-[(3-hydroxyazetidin-1-yl)carbonyl]-2-methoxyphenyl}amino)[,2]-triazolo[1,5-a]pyridin-6-yl]benzamide]
COc1cc(C(=O)N2CCS(=O)(=O)CC2)ccc1Nc1nc2ccc(-c3ccc(C(=O)NCc4ccc(F)cc4)cc3)cn2n1 [Example 04.09, 4-[2-({4-[(1,1-dioxidothiomorpholin-4-yl)carbonyl]-2-methoxyphenyl}amino)[,2]triazolo[1,5-a]pyridin-6-yl]-N-(4-fluorobenzyl)benzamide]
